Measurements taken from patent US11350582B2, “Plant varieties by application of endocides” (Stephen F. Austin State University, priority 2015, dated 2022).

Columns and labels:
[1] = test system: king protea explants; conditions: MS medium culture, cited from earlier work
[2] = test system: S. molesta; experiment: Field test in an isolated pond, foliar spray with DAWN dish soap (Example 16); type: in vivo, Salvinia molesta; conditions: 0.5% with 0.25% soap; for small S. molesta plants dead: 48 h after the first treatment; for new growths induced (small plants): after first treatment; for fate of newly emerged type I plants: after the second treatments; for type III S. molesta plants on the top layer of the dense mats killed or severely injured: within 48 hrs of the first treatment
Procedure: General Experimental Procedure: Field experiments were conducted in an isolated pond in east Texas, United States. The pond was infested with type III S. molesta plants that formed dense mats along the edge and type I and II plants floating on the water surface. 4-hydroxybenzoic and 3,4-dihydroxybenzoic acids were purchased from a commercial source (99.9%, HPLC analysis). 500 m^2 of S. molesta was treated with 50 L 0.5% 4-hydroxybenzoic acid mixed with 0.25% DAWN® dish soap and 500 m^2 of S. molesta was treated with 50 L 0.5% 3,4-dihydroxybenzoic acid mixed with 0.25% DAWN® dish soap by Solo 433 motorized backpack sprayer. Plant growth and survival status were documented through photographs and the living biomass was sampled 48 hrs after each treatment. The experimental species for selectivity tests were mainly common species associate with S. molesta or species growing in nearby habitats. The species included one fern species, Carolina mosquito fern (A. caroliniana), and 11 herbaceous invasive aquatic species of angiosperms (flowering plants), namely, water hyacinth (Eichharnia crassipes (Mart.) Solms) of the family Pontederiaceae, least duckweed (Lemna minuta) and Brazilian watermeal (Wolffia brasillensis Weddell) of the family Araceae, and hydrilla (Hydrilla verticillata (L.f.) Royle) of the family Hydrocharitaceae, alligator weed (Alternanthera philoxeroides Griseb.) of the family Amaranthaceae, knotweed (Polygonum sp.) and redvine (Brunnichia ovata Walter) of the family Polygonaceae, water primrose (Ludwigia sp.) of the family Onagraceae, cattail (Typha latifolia L.) of the family Typhaceae, proliferating bulrush (Isolepis prolifera (Rottb.) R. Br.) of the family Cyperaceae, and coontail (Ceratophyllum demersum L.) of the family Ceratophyllaceae and four woody plants, namely, baldcypress (Taxodium distichum (L.) Rich.) of the family Cupressaceae, loblolly pine (Pinus taeda L.) of the family Pinaceae, Chinese tallow (T. sebifera), and buttonbush (Cephalanthus occidentalis L.) of the family Rubiaceae. At least 30 plants for each of 12 herbaceous species and three seedlings of each of the four woody species were sprayed during the treatment of S. molesta.

[3] = test system: common species associate with S. molesta or species growing in nearby habitats; experiment: Field selectivity test on associated plant species (Example 16); type: in vivo; conditions: 0.5% with 0.25% soap; after two foliar applications
Procedure: General Experimental Procedure: Field experiments were conducted in an isolated pond in east Texas, United States. The pond was infested with type III S. molesta plants that formed dense mats along the edge and type I and II plants floating on the water surface. 4-hydroxybenzoic and 3,4-dihydroxybenzoic acids were purchased from a commercial source (99.9%, HPLC analysis). 500 m^2 of S. molesta was treated with 50 L 0.5% 4-hydroxybenzoic acid mixed with 0.25% DAWN® dish soap and 500 m^2 of S. molesta was treated with 50 L 0.5% 3,4-dihydroxybenzoic acid mixed with 0.25% DAWN® dish soap by Solo 433 motorized backpack sprayer. Plant growth and survival status were documented through photographs and the living biomass was sampled 48 hrs after each treatment. The experimental species for selectivity tests were mainly common species associate with S. molesta or species growing in nearby habitats. […]

[4] = test system: anthracnose pathogen and N-fixing bacteria in peanut; conditions: high concentrations; cited from earlier work
[5] = test system: taro; conditions: in vivo; cited from earlier work
[6] = test system: Fusarium oxysporum f. sp. niveum; conditions: cited from earlier work
[7] = test system: Enterbacter ludwigii; conditions: cited from earlier work
[8] = test system: tobacco; conditions: from root exudates of tobacco; cited from earlier work
[9] = test system: S. molesta; experiment: Field test in isolated ponds, plots on water surface and soils (Example 17); type: in vivo, Salvinia molesta; conditions: 0.5% 4-hydroxybenzoic acid; for % of Living Biomass/Total Biomass (mean ± s.d.), Type I and II Plants on Water Surface / % of Living Biomass/Total Biomass (mean ± s.d.), Type III Plants on Soils: 12 days
Procedure: General Experimental Procedure: The field experiments were conducted in isolated ponds in east Texas, United States. The ponds are small (each were 200-500 m^2 in size) in the hardwood forests and each was fully covered with S. molesta plants and also included least duckweed (L. minuta) and Brazillan watermeal (W. brasillensis). The area was divided by plots, each plot had 50 m^2 in area including approximately 40 m^2 of type I and II S. molesta plants on the water surface and 10 m^2 of type III S. molesta plants on soils. Each plot, except a control plot, was treated with 20 L one of the following experimental solutions by Solo 433 motorized backpack sprayer: 0.5% 4-hydroxybenzoic acid, 0.5% 4-hydroxybenzoic acid mixed with 0.25% DAWN® dish soap, 0.5% 4-hydroxybenzoic acid and 0.25% 3,4-dihydroxybenzoic acid, 0.5% 4-hydroxybenzoic acid and 0.25% 3,4-dihydroxybenzoic acid with 0.25% DAWN® dish soap, and 0.25% DAWN® dish soap. Each test condition had three replicates. 12 days after the treatments, plant growth status was photographed and the plant survival rate was measured by three 1×1 m random sample plots for floating plants on the water surface and two samples in 1×1 m random sample plots for plants on soils. Pairwise comparisons for all treatments (including Control) for living biomass were made using Tukey test at alpha=0.05, which was done using SAS (SAS 9.4).

[10] = test system: leaf vegetables; conditions: in vivo; cited from earlier work
[11] = test system: F. oxysporum, F. nivale, Aspergillus flavus, and A. fumigatus; conditions: cited from earlier work
[12] = test system: rhizosphere bacterial population; conditions: cited from earlier work
[13] = test system: rhizosphere fungal populations; conditions: cited from earlier work
[14] = listed as 4-hydroxybenzoic acid

O=C(O)c1ccc(O)c(O)c1 [3,4-dihydroxybenzoic acid]
effect on root mass of king protea explants ([1]; 100 mg/L): increase the root mass | effect on growth of king protea explants ([1]; 500 mg/L): inhibit growth | impacts on root growth of king protea explants (patent's reading of the cited data) [1]: no significant impacts | small S. molesta plants dead [2]: > 80% | new growths induced (small plants) [2]: type I only | fate of newly emerged type I plants [2]: all newly emerged type I plants were killed | type III S. molesta plants on the top layer of the dense mats killed or severely injured [2]: 100% | damage to other species tested for selectivity [3]: none of the other species tested for selectivity except A. caroliniana were severely damaged or killed

O=C(O)c1ccc(O)cc1 [4-Hydroxybenzoic acid]
effect on anthracnose pathogen and N-fixing bacteria [4]: inhibited | inhibitory activity on the growth of taro [5]: weaker inhibitory activity than benzoic acid | mycelial growth [6]: stimulate the mycelial growth | growth of Enterbacter ludwigii [7]: stimulated the growth | activity on growth and photosynthetic rate in tobacco [8]: some inhibitory activity | induced new growth type [9]: primarily type I and II | % of Living Biomass/Total Biomass (mean ± s.d.), Type I and II Plants on Water Surface [9]: 34.7% | % of Living Biomass/Total Biomass (mean ± s.d.), Type III Plants on Soils [9]: 14.3% | % of Living Biomass/Total Biomass (mean ± s.d.), Type I and II Plants on Water Surface [9, 14]: 34.7% | % of Living Biomass/Total Biomass (mean ± s.d.), Type III Plants on Soils [9, 14]: 14.3% | small S. molesta plants dead [2]: > 90% | new growths induced (small plants) [2]: type I only | fate of newly emerged type I plants [2]: all newly emerged type I plants were killed | type III S. molesta plants on the top layer of the dense mats killed or severely injured [2]: 100% | inhibitory activity in growth of some leaf vegetables [10]: weaker than adipic acid | damage to other species tested for selectivity [3]: none of the other species tested for selectivity except A. caroliniana were severely damaged or killed | hypha growth and spore proliferation [11]: promote the hypha growth and spore proliferation | Shannon-Wiener index, rhizosphere bacterial population [12]: decrease | Shannon-Wiener index, rhizosphere fungal populations [13]: increase
